{"source": "patent US8975400B2", "about": "“2,3-dihydroimidazo[1, 2-c] pyrimidin-5(1 H)-one compounds use as LP-PLA2 inhibitors” (Glaxo Group Limited, priority 2011, dated 2015)", "key": {"[1]": {"test_system": "experimental autoimmune encephalomyelitis (EAE) induced by myelin basic protein (MBP)", "assay": "Rat experimental autoimmune encephalomyelitis (EAE) model, preventive treatment", "assay_type": "in vivo", "method": "A further study was carried out to study the impact of Lp-PLA2 inhibitors on modulating M1/M2 imbalance. In this study, rats were induced to develop experimental autoimmune encephalomyelitis (EAE) by immunization with myelin basic protein (MBP) antigen and treated with a known Lp-PLA2 inhibitor: 5-((9-Methoxy-4-oxo-6,7-dihydro-4H-pyrimido[6,1-a]isoquinolin-2-yl)oxy)-2-(3-(trifluoromethyl)phenoxy)benzonitrile (See PCT application no. PCT/CN2011/001597). In this preventive treatment model, the compound was administered at day 0 (day of immunization) and continued to administer until day 22. The study lasted for 25 days. Rats were subsequently monitored for symptoms of EAE. Rats were immunized with MBP to develop EAE and symptoms were monitored daily. Plasma Lp-PLA2 activity, OxLDL, and LysoPC concentration were determined at different time points through the course of EAE."}, "[2]": {"test_system": "splenic macrophages and CNS infiltrating macrophages (M1/M2 markers)", "assay": "Ex vivo analysis of M1 and M2 markers in macrophages of EAE rats by realtime PCR", "parameters": "species or system rat", "conditions": "splenic macrophages harvested day 13 post MBP-immunization", "method": "Ex vivo analysis of proinflammatory (M1) and anti-inflammatory (M2) markers in control and compound treated EAE rats. Splenic macrophages were harvested at day 13 post MBP-immunization and assayed for expression of a variety of markers by realtime PCR. CNS infiltrating cells were harvested and macrophages were analyzed for expression of M1 and M2 markers by realtime PCR."}, "[3]": {"biological_target": "T1, Lp-PLA2 in human plasma (Homo sapiens, UniProt Q13093)", "T1 construct": "This assay may detect the activity of Lp-PLA2 in human plasma; from tissue; host or cells: pooled human plasma", "T1 sequence (Q13093 22-441)": "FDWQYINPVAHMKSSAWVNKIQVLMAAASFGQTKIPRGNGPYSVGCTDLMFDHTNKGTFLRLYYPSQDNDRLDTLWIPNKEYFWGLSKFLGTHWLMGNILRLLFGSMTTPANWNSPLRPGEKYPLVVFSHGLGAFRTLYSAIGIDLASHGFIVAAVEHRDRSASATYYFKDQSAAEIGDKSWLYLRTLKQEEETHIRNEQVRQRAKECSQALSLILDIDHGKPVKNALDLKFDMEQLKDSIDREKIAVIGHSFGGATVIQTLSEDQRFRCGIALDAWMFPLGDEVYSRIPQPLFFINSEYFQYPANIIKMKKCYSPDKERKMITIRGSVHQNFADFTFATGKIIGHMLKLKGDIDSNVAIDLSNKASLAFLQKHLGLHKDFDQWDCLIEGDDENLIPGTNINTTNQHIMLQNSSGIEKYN", "assay": "Lp-PLA2 human plasma assay (Thio-PAF assay)", "assay_type": "biochemical", "conditions": "pooled human plasma, 2-thio-PAF substrate; read-out: pIC50 in the thio-PAF assay (converted)", "method_in_brief": "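Pooled human plasma preincubated 30 min with serially diluted compounds, then 2-thio-PAF substrate with CPM and NEM added in 50 mM HEPES pH 7.4, 150 mM NaCl, 1 mM CHAPS. TFA-quenched after 2 min, 40 min at RT, fluorescence ex 380/em 485; pIC50 from curve fit.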"}, "[4]": {"biological_target": "T2, recombinant human Lp-PLA2 (Homo sapiens, UniProt Q13093)", "T2 sequence (Q13093 22-441)": "T1 sequence (Q13093 22-441)", "assay": "Recombinant human Lp-PLA2 assay (rhLp-PLA2, PED6 assay)", "assay_type": "biochemical", "conditions": "recombinant human Lp-PLA2, PED6 substrate; upper limit for pIC50 in this assay is 9.3", "method_in_brief": "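Compound preincubated 30 min with rhLp-PLA2 (4 nM or 110 pM) in 50 mM HEPES pH 7.4, 150 mM NaCl, 1 mM CHAPS, then PED6 substrate (4 μM or 5 μM) added. After 20 min at room temperature protected from light, fluorescence read at ex 480/em 540. pIC50 derived from serial-dilution curves.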"}}, "note": "Counter-ions that a name gives are not always drawn."}
{"smiles": "COc1ccc2c(c1)CCn1c-2cc(Oc2ccc(Oc3cccc(C(F)(F)F)c3)c(C#N)c2)nc1=O", "note": "[5-((9-Methoxy-4-oxo-6,7-dihydro-4H-pyrimido[6,1-a]isoquinolin-2-yl)oxy)-2-(3-(trifluoromethyl)phenoxy)benzonitrile]", "values": [{"measurement": "LysoPC levels", "setting": "[1]; rat EAE plasma", "result": "decreased"}, {"measurement": "plasma Lp-PLA2 activity", "setting": "[1]; rat EAE plasma", "result": "decreased"}, {"measurement": "clinical disease (EAE)", "setting": "[1]; rat EAE, compound administered day 0 until day 22, study 25 days", "result": "reduction in clinical disease"}, {"measurement": "M1 (proinflammatory) markers expression", "setting": "[2]", "result": "decrease in M1 markers"}, {"measurement": "M2 (anti-inflammatory) markers expression", "setting": "[2]", "result": "increase in M2 markers"}]}
{"smiles": "CN1CCn2c1cc(OCc1ccc(Oc3ccc(Cl)c(C#N)c3)c(C#N)c1)nc2=O", "note": "[Example 114, 2-chloro-5-(2-cyano-4-(((1-methy-5-oxo-1,2,3,5-tetrahydroimidazo[1,2-c]pyrimidin-7-yl)oxy)methyl)phenoxy)benzonitrile]", "values": [{"measurement": "IC50", "setting": "[3]", "result": "≤ 100", "unit": "nM"}, {"measurement": "IC50", "setting": "[4]", "result": "≤ 10", "unit": "nM"}]}
{"smiles": "CN1CCn2c1cc(OCc1ccc(Oc3ccc(C#N)c(F)c3)c(C#N)c1)nc2=O", "note": "[Example 95, 4-(2-cyano-4-(((1-methyl-5-oxo-1,2,3,5-tetrahydroimidazo[1,2-c]pyrimidin-7-yl)oxy)methyl)phenoxy)-2-fluorobenzonitrile]", "values": [{"measurement": "IC50", "setting": "[3]", "result": "≤ 100", "unit": "nM"}, {"measurement": "IC50", "setting": "[4]", "result": 1.26, "unit": "nM"}]}
{"smiles": "CN1CCn2c1cc(OCc1cc(F)c(Oc3cncc(C(F)(F)F)c3)c(F)c1)nc2=O", "note": "[Example 147, 7-((3,5-difluoro-4-((5-(trifluoromethyl)pyridin-3-yl)oxy)benzyl)oxy)-1-methyl-2,3-dihydroimidazo[1,2-c]pyrimidin-5(1H)-one]", "values": [{"measurement": "IC50", "setting": "[3]", "result": "≤ 100", "unit": "nM"}, {"measurement": "IC50", "setting": "[4]", "result": 1, "unit": "nM"}]}
{"smiles": "CN1CCn2c1cc(OCc1ccc(Oc3ccc(F)c(Cl)c3)c(F)c1)nc2=O", "note": "[Example E15, 7-((4-(3-chloro-4-fluorophenoxy)-3-fluorobenzyl)oxy)-1-methyl-2,3-dihydroimida-zo[1,2-c]pyrimidin-5(1H)-one]", "values": [{"measurement": "IC50", "setting": "[3]", "result": "≤ 1000", "unit": "nM"}, {"measurement": "IC50", "setting": "[4]", "result": "≤ 10", "unit": "nM"}]}
{"smiles": "CN1CCn2c1cc(OCCc1ccc(Oc3ccc(Cl)c(C(F)(F)F)c3)cc1)nc2=O", "note": "[Example E13, 7-(4-(4-chloro-3-(trifluoromethyl)phenoxy)phenethoxy)-1-methyl-2,3-dihydroimi-dazo[1,2-c]pyrimidin-5(1H)-one]", "values": [{"measurement": "IC50", "setting": "[3]", "result": "≤ 1000", "unit": "nM"}, {"measurement": "IC50", "setting": "[4]", "result": "≤ 10", "unit": "nM"}]}
{"smiles": "CN1CCn2c1cc(OCc1ccc(Oc3ccnc(C#N)c3)c(C#N)c1)nc2=O", "note": "[Example 130, 4-(2-cyano-4-(((1-methyl-5-oxo-1,2,3,5-tetrahydroimidazo[1,2-c]pyrimidin-7-yl)oxy)methyl)phenoxy)picolinonitrile, trifluoroacetic acid salt]", "values": [{"measurement": "IC50", "setting": "[3]", "result": "≤ 100", "unit": "nM"}, {"measurement": "IC50", "setting": "[4]", "result": "≤ 10", "unit": "nM"}]}
{"smiles": "CN1CCn2c1cc(OCc1cc(F)c(Oc3ccc(C(F)(F)F)cc3)c(F)c1)nc2=O", "note": "[Example E84, 7-((3,5-difluoro-4-(4-(trifluoromethyl)phenoxy)benzyl)oxy)-1-methyl-2,3-dihydroimidazo[1,2-c]pyrimidin-5(1H)-one]", "values": [{"measurement": "IC50", "setting": "[3]", "result": "≤ 1000", "unit": "nM"}, {"measurement": "IC50", "setting": "[4]", "result": "≤ 10", "unit": "nM"}]}
{"smiles": "CN1CCn2c1cc(OCc1ccc(Oc3ccc(Cl)c(C#N)c3)c(F)c1)nc2=O", "note": "[Example 125, 2-chloro-5-(2-fluoro-4-(((1-methyl-5-oxo-1,2,3,5-tetrahydroimidazo[1,2-c]pyrimidin-7-yl)oxy)methyl)phenoxy)benzonitrile]", "values": [{"measurement": "IC50", "setting": "[3]", "result": "≤ 100", "unit": "nM"}, {"measurement": "IC50", "setting": "[4]", "result": "≤ 1", "unit": "nM"}]}
{"smiles": "CN1CCn2c1cc(OCc1cc(F)c(Oc3ccc(F)c(F)c3)c(F)c1)nc2=O", "note": "[Example E75, 7-((4-(3,4-difluorophenoxy)-3,5-difluorobenzyl)oxy)-1-methyl-2,3-dihydroimida-zo[1,2-c]pyrimidin-5(1H)-one]", "values": [{"measurement": "IC50", "setting": "[3]", "result": "≤ 1000", "unit": "nM"}, {"measurement": "IC50", "setting": "[4]", "result": "≤ 10", "unit": "nM"}]}
{"smiles": "CN1CCn2c1cc(OCc1cc(F)c(Oc3ccc(C#N)c(C(F)(F)F)c3)c(F)c1)nc2=O", "note": "[Example 144, 4-(2,6-difluoro-4-(((1-methyl-5-oxo-1,2,3,5-tetrahydroimidazo[1,2-c]pyrimidin-7-yl)oxy)methyl)phenoxy)-2-(trifluoromethyl)benzonitrile]", "values": [{"measurement": "IC50", "setting": "[3]", "result": "≤ 100", "unit": "nM"}, {"measurement": "IC50", "setting": "[4]", "result": "< 0.501", "unit": "nM"}]}
{"smiles": "CC(C)N1CCn2c1cc(OCc1ccc(Oc3cccc(C(F)(F)F)c3)c(C#N)c1)nc2=O", "note": "[Example E51, 5-(((1-isopropyl-5-oxo-1,2,3,5-tetrahydroimidazo[1,2-c]pyrimidin-7-yl)oxy)methy)-2-(3-(trifluoromethyl)phenoxy)benzonitrile, trifluoroacetic acid salt]", "values": [{"measurement": "IC50", "setting": "[3]", "result": "≤ 100", "unit": "nM"}, {"measurement": "IC50", "setting": "[4]", "result": "≤ 1", "unit": "nM"}]}
{"smiles": "N#Cc1cc(COc2cc3n(c(=O)n2)CCN3)ccc1Oc1cncc(C(F)(F)F)c1", "note": "[Example 124, 5-(((5-oxo-1,2,3,5-tetrahydroimidazo[1,2-c]pyrimidin-7-yl)oxy)methyl)-2-((5-(trifluoromethyl)pyridin-3-yl)oxy)benzonitrile, trifluoroacetic acid salt]", "values": [{"measurement": "IC50", "setting": "[3]", "result": "≤ 100", "unit": "nM"}, {"measurement": "IC50", "setting": "[4]", "result": "≤ 10", "unit": "nM"}]}
{"smiles": "CN1CCn2c1cc(OCc1ccc(Oc3ccc(C(F)(F)F)nc3)c(F)c1)nc2=O", "note": "[Example E3, 7-((3-fluoro-4-((6-(trifluoromethyl)pyridin-3-yl)oxy)benzyl)oxy)-1-methyl-2,3-dihydroimidazo[1,2-c]pyrimidin-5(1H)-one]", "values": [{"measurement": "IC50", "setting": "[3]", "result": "≤ 1000", "unit": "nM"}, {"measurement": "IC50", "setting": "[4]", "result": "≤ 10", "unit": "nM"}]}
{"smiles": "O=c1nc(OCc2ccc(Oc3ccc(Cl)c(C(F)(F)F)c3)cc2)cc2n1CCN2", "note": "[Example 89, 7-((4-(4-chloro-3-(trifluoromethyl)phenoxy)benzyl)oxy)-2,3-dihydroimidazo[1,2-c]pyrimidin-5(1H)-one]", "values": [{"measurement": "IC50", "setting": "[3]", "result": "≤ 1000", "unit": "nM"}, {"measurement": "IC50", "setting": "[4]", "result": "≤ 10", "unit": "nM"}]}
{"smiles": "N#Cc1cc(COc2cc3n(c(=O)n2)CCN3)ccc1Oc1cc(F)cc(C(F)(F)F)c1", "note": "[Example 120, 2-(3-fluoro-5-(trifluoromethyl)phenoxy)-5-(((5-oxo-1,2,3,5-tetrahydroimidazo[1,2-c]pyrimidin-7-yl)oxy)methyl)benzonitrile]", "values": [{"measurement": "IC50", "setting": "[3]", "result": "≤ 100", "unit": "nM"}, {"measurement": "IC50", "setting": "[4]", "result": "≤ 10", "unit": "nM"}]}
{"smiles": "CN1CCn2c1cc(OCc1ccc(Oc3ccc(Cl)c(F)c3)c(C#N)c1)nc2=O", "note": "[Example E37, 2-(4-chloro-3-fluorophenoxy)-5-(((1-methyl-5-oxo-1,2,3,5-tetrahydroimidazo[1,2-c]pyrimidin-7-yl)oxy)methyl)benzonitrile, trifluoroacetic acid salt]", "values": [{"measurement": "IC50", "setting": "[3]", "result": "≤ 1000", "unit": "nM"}, {"measurement": "IC50", "setting": "[4]", "result": "≤ 10", "unit": "nM"}]}
{"smiles": "N#Cc1cc(COc2cc3n(c(=O)n2)CCN3)ccc1Oc1ccc(C(F)(F)F)nc1", "note": "[Example 93, 5-(((5-oxo-1,2,3,5-tetrahydroimidazo[1,2-c]pyrimidin-7-yl)oxy)methyl)-2-((6-(trifluoromethyl)pyridin-3-yl)oxy)benzonitrile, trifluoroacetic acid salt]", "values": [{"measurement": "IC50", "setting": "[3]", "result": "≤ 100", "unit": "nM"}, {"measurement": "IC50", "setting": "[4]", "result": "≤ 10", "unit": "nM"}]}
{"smiles": "CN1CCn2c1cc(OCc1ccc(Oc3cccc(F)c3)c(C#N)c1)nc2=O", "note": "[Example E18, 2-(3-fluorophenoxy)-5-(((1-methyl-5-oxo-1,2,3,5-tetrahydroimidazo[1,2-c]pyrimidin-7-yl)oxy)methyl)benzonitrile]", "values": [{"measurement": "IC50", "setting": "[3]", "result": "≤ 1000", "unit": "nM"}, {"measurement": "IC50", "setting": "[4]", "result": "≤ 10", "unit": "nM"}]}
